Legend:
[1] = hygroscopicity experiment; assay type: physicochemical; conditions: crystal form IV of erlotinib base; conditions not given
[2] = stability experiment; assay type: physicochemical; conditions: crystal form IV of erlotinib base; conditions not given

- change in the hygroscopicity experiment [1]: did not significantly change
- change in the stability experiment [2]: did not significantly change
SMILES: C#Cc1cccc(Nc2ncnc3cc(OCCOC)c(OCCOC)cc23)c1 [Form IV, N-(3-ethynylphenyl)-6,7-bis(2-methoxyethoxy)quinazolin-4-amine]

Reference: US8653264B2, “Crystal of erlotinib base and the preparation method thereof” (Zhejiang Huahai Pharmaceutical Co., Ltd., priority 2010, dated 2014)
